Measured values reported in the supplement of paper PMC10307832.

Experiments:
Test in all cases: relative viability (nuclei count vs DMSO), 5 days (fraction); higher = more cells survive
BX 795 + Foretinib = compound: O=C(NCCCNc1nc(Nc2cccc(NC(=O)N3CCCC3)c2)ncc1I)c1cccs1 [BX 795] + COc1cc2c(Oc3ccc(NC(=O)C4(C(=O)Nc5ccc(F)cc5)CC4)cc3F)ccnc2cc1OCCCN1CCOCC1 [Foretinib] (partner 0.25 µM)
Method in brief: (§1)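 One day after seeding in 1536-well plates, lung cancer cell lines were dosed by pin tool. Dosing was either single-drug or a fixed anchor-drug dose plus five library-drug doses (not always all listed) in √10 steps. After 5 days, nuclei were stained in one fix-and-stain step and counted on 4× images, and relative viability is the nuclei count of treated wells over that of vehicle wells, given as the median of duplicate plates.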

BX 795 + Linsitinib = compound: O=C(NCCCNc1nc(Nc2cccc(NC(=O)N3CCCC3)c2)ncc1I)c1cccs1 [BX 795] + C[C@]1(O)C[C@@H](c2nc(-c3ccc4ccc(-c5ccccc5)nc4c3)c3c(N)nccn32)C1 [Linsitinib] (partner 1 µM)
Method in brief: as §1

BX 795 + Tozasertib = compound: O=C(NCCCNc1nc(Nc2cccc(NC(=O)N3CCCC3)c2)ncc1I)c1cccs1 [BX 795] + Cc1cc(Nc2cc(N3CCN(C)CC3)nc(Sc3ccc(NC(=O)C4CC4)cc3)n2)n[nH]1 [Tozasertib] (partner 0.1 µM)
Method in brief: as §1

BX 795 + AZD7762 = compound: O=C(NCCCNc1nc(Nc2cccc(NC(=O)N3CCCC3)c2)ncc1I)c1cccs1 [BX 795] + NC(=O)Nc1cc(-c2cccc(F)c2)sc1C(=O)N[C@H]1CCCNC1 [AZD7762] (partner 0.2 µM)
Method in brief: as §1

BX 795 + Olaparib = compound: O=C(NCCCNc1nc(Nc2cccc(NC(=O)N3CCCC3)c2)ncc1I)c1cccs1 [BX 795] + O=C(c1cc(Cc2n[nH]c(=O)c3ccccc23)ccc1F)N1CCN(C(=O)C2CC2)CC1 [Olaparib] (partner 8 µM)
Method in brief: as §1

Row | Cell Line | relative viability (BX 795 + Foretinib; first compound 0.04 µM) | relative viability (BX 795 + Foretinib; first compound 0.1265 µM) | relative viability (BX 795 + Foretinib; first compound 0.4 µM) | relative viability (BX 795 + Foretinib; first compound 1.265 µM) | relative viability (BX 795 + Linsitinib; first compound 0.04 µM) | relative viability (BX 795 + Linsitinib; first compound 0.1265 µM) | relative viability (BX 795 + Linsitinib; first compound 0.4 µM) | relative viability (BX 795 + Linsitinib; first compound 1.265 µM) | relative viability (BX 795 + Tozasertib; first compound 0.04 µM) | relative viability (BX 795 + Tozasertib; first compound 0.1265 µM) | relative viability (BX 795 + Tozasertib; first compound 0.4 µM) | relative viability (BX 795 + Tozasertib; first compound 1.265 µM) | relative viability (BX 795 + AZD7762; first compound 0.04 µM) | relative viability (BX 795 + AZD7762; first compound 0.1265 µM) | relative viability (BX 795 + AZD7762; first compound 0.4 µM) | relative viability (BX 795 + AZD7762; first compound 1.265 µM) | relative viability (BX 795 + Olaparib; first compound 0.04 µM) | relative viability (BX 795 + Olaparib; first compound 0.1265 µM) | relative viability (BX 795 + Olaparib; first compound 0.4 µM) | relative viability (BX 795 + Olaparib; first compound 1.265 µM)
1 | NCI-H441 | 1.28 | 0.908 | 1.18 | 0.796 | 0.667 | 0.528 | 0.854 | 0.326 | 0.857 | 0.567 | 0.834 | 0.376 | 1.23 | 1.21 | 1.07 | 0.866 | 0.665 | 0.623 | 0.497 | 0.413
2 | NCI-H460 | 1.03 | 1.16 | 1.01 | 0.922 | 0.708 | 1.01 | 0.605 | 0.281 | 0.497 | 0.44 | 0.0824 | 0.184 | 0.587 | 0.616 | 0.664 | 0.767 | 0.371 | 0.427 | 0.154 | 0.346
3 | NCI-H596 | 0.873 | 0.745 | 1.07 | 0.787 | 1.09 | 1.25 | 1.16 | 1.03 | 0.963 | 0.906 | 1.03 | 0.699 | 1.11 | 0.956 | 1.14 | 1.03 | 0.729 | 0.673 | 0.632 | 0.766
4 | NCI-H647 | 1.19 | 1.24 | 1.26 | 0.916 | 1.25 | 1.16 | 1.28 | 0.601 | 0.256 | 0.352 | 0.218 | 0.233 | 0.554 | 0.493 | 0.43 | 0.363 | 0.406 | 0.565 | 0.288 | 0.232
5 | NCI-H650 | 1.06 | 0.935 | 0.927 | 0.911 | 0.752 | 0.739 | 1.03 | 0.549 | 0.864 | 0.769 | 0.583 | 0.488 | 0.843 | 0.908 | 0.701 | 1.05 | 0.451 | 0.367 | 0.412 | 0.259
6 | NCI-H727 | 0.957 | 0.846 | 0.916 | 1.09 | 0.294 | 0.247 | 0.277 | 0.24 | 0.683 | 0.706 | 0.512 | 0.546 | 0.614 | 0.535 | 0.671 | 0.531 | 0.725 | 0.72 | 1.02 | 0.685
7 | NCI-H838 | 0.952 | 0.924 | 0.917 | 0.413 | 0.936 | 0.986 | 0.881 | 0.331 | 0.236 | 0.303 | 0.272 | 0.22 | 0.94 | 0.981 | 0.786 | 0.824 | 0.853 | 0.757 | 0.643 | 0.248
8 | NCI-H1355 | 1.03 | 1.07 | 1.09 | 0.773 | 0.768 | 0.869 | 0.811 | 0.65 | 0.589 | 0.442 | 0.486 | 0.385 | 0.784 | 0.607 | 0.734 | 0.69 | 0.827 | 0.663 | 0.806 | 0.571
9 | NCI-H1395 | 0.979 | 1.02 | 0.943 | 0.899 | 1.1 | 0.957 | 0.611 | 0.786 | 0.698 | 0.721 | 0.601 | 0.72 | 0.375 | 0.427 | 0.39 | 0.381 | 0.452 | 0.468 | 0.449 | 0.501
10 | NCI-H1437 | 1.08 | 1.25 | 1.39 | 0.99 | 1.05 | 1.07 | 0.992 | 0.769 | 0.378 | 0.395 | 0.429 | 0.413 | 1.14 | 1.14 | 0.888 | 1.18 | 0.632 | 0.664 | 0.651 | 0.483
11 | NCI-H1651 | 0.786 | 0.748 | 0.76 | 0.674 | 0.999 | 1.1 | 1.02 | 0.831 | 0.711 | 0.709 | 0.59 | 0.641 | 0.469 | 0.457 | 0.463 | 0.511 | 0.193 | 0.166 | 0.167 | 0.163
12 | NCI-H1666 | 1.07 | 1.05 | 1.11 | 0.787 | 0.777 | 1.07 | 1.05 | 0.74 | 0.642 | 0.69 | 0.599 | 0.403 | 0.895 | 0.784 | 0.838 | 0.832 | 0.939 | 0.707 | 0.938 | 0.726
13 | NCI-H1734 | 0.836 | 0.982 | 0.83 | 0.456 | 0.915 | 0.968 | 0.861 | 0.761 | 0.243 | 0.23 | 0.238 | 0.216 | 0.54 | 0.562 | 0.51 | 0.444 | 0.612 | 0.662 | 0.501 | 0.514
